According to patent US20030077826A1, “Chimeric molecules containing a module able to target specific cells and a module regulating the apoptogenic function of the permeability transition pore complex (PTPC)” (priority 2001, published 2003):
Ends that are not written are not given here. Peptide text beside a SMILES is read from it. * marks the point of attachment. Biotin = O=C1N[C@H]2[C@H](CS[C@H]2CCCCC(=O)*)N1

Columns and labels:
[1] = tested on: permeability transition pore (PTP); assay: Swelling of isolated mitochondria (large amplitude swelling, 90° light scattering); type: biochemical, rat; design: key to Induction of Mitochondrial swelling (sw): +++ rapid sw; ++ low sw; + very low sw; − no sw t 20 min; details: for Induction of Mitochondrial swelling (sw): 5 μM, 20 min, isolated mitochondria
Protocol: Mitochondria are purified from rat liver, as described (Costantini et al., 1996), and resuspended in 250 mM sucrose+0.1 mM EGTA+10 mM-tris[hydroxymethyl]methyl-2-Aminoethanesulfonic acid, pH=7.4). For the induction of PT, mitochondria (0.5 mg protein per ml) are resuspended in PT buffer (200 mM sucrose, 10 mM Tris-MOPS (pH 7.4), 5 mM Tris-succinate, 1 mM Tris-phosphate, 2 μM rotenone, and 10 μM EGTA-Tris), and monitored in an F4500 fluorescence spectrometer (Hitachi, Tokyo, Japan) for the 90° light scattering of light ([…]), 1 μM cyclosporin A (CsA; Novartis, Basel, Switzerland), 5 μM CaCl2, and/or 0.5 to 20 μM of pTarg-pTox or pTarg-pSave. For the determination of the ΔΨm, mitochondria (0.5 mg protein per ml) are incubated in a buffer supplemented with 1 μM rhodamine 123 (Molecular Probes, Eugene, Oreg.) and the dequenching of rhodamine fluorescence (excitation 505 nm, emission 525 nm) is measured as described (Shimizu et al, 1998). Supernatants from mitochondria (6800 g for 15 min; then 20 000 g for 1 h; 4° C.) are frozen at −80° C. until determination of apoptogenic activity on isolated nuclei, DEVD-afc cleaving activity, and immunodetection of cytochrome c and AIF. Cytochrome c and AIF are detected by means of a monoclonal antibody (clone 7H8.2C12, Pharmingen) and a polyclonal rabbit anti-serum (Susin et al. 1999) respectively.

Purified ANT = molecular target: T1, Purified ANT (Rattus norvegicus, UniProt Q05962); assay: biochemical; type: binding
T1 sequence (Q05962 1-298): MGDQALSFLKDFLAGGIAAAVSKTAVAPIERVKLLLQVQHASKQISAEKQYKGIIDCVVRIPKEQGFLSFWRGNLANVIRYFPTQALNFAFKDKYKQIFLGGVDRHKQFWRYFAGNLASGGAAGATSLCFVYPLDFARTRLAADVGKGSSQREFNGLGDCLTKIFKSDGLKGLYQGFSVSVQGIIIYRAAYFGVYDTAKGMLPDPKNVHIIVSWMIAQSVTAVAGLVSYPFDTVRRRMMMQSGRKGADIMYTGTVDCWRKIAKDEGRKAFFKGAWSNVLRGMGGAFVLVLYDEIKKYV
Protocol: (§1) Sensor Chips SA (streptavidin coated sensor chips) were used for immobilisation of the different peptides. Tox1 was immobilised at a density of 0.7 ng/mm^2, Tox0 at a density of 3.7 ng/mm^2,. Ctr1Tox0 at a density of 1.4 ng/mm^2, Tox5 at a density of 1 ng/mm^2, Tox6 at a density of 1 ng/mm2, Save1 at a density of 1.3 ng/mm^2, and the control peptide at a density of 0.8 ng/mm^2. Association and dissociation kinetics of ANT and VDAC interactions were followed at a rate of 10 μL/min for 10 minutes (5 minutes association and 5 minutes dissociation). The ligand was regenerated with a 1 minute flux of KSCN 3M. The obtained sensorgrams were analysed by the BlAeval 3.1 software using the method of double references (Myszka D. G. 2000. Kinetic, equilibrium and thermodynamic analysis of macromolecular interactions with BIACORE. Methods Enzymol. 323:325-340). From the sensorgrams with the ligands were first substracted the sensorgrams obtained with the corresponding analyte solvents. A second substraction was performed with the sensorgrams obtained with the control peptide ligand. The control peptide for the Tox and Save peptides was biot-H19C corresponding to the sequence of the β2-adrenergic receptor (Lebesgue D., Wallukat G., Mijares A., Granier C., Argibay J., and Hoebeke J. (1998) An agonist-like monoclonal antibody to the human β 2-adrenergic receptor. Eur.J. Pharmacol. 348:123-133). The control peptide for Tox0 was Ctr1Tox0.

Purified VDAC = assay: Surface plasmon resonance, immobilised peptides with purified VDAC; type: binding; details: for specific binding of VDAC: 50 nM VDAC
Protocol: as §1

[2] = molecular target: T2, adenine nucleotide translocator (ANT), purified from rat heart mitochondria (rat), Q05962; assay: SPR (BIAcore), peptide on streptavidin chip, ANT as analyte at one concentration (50 nM)
T2 chain: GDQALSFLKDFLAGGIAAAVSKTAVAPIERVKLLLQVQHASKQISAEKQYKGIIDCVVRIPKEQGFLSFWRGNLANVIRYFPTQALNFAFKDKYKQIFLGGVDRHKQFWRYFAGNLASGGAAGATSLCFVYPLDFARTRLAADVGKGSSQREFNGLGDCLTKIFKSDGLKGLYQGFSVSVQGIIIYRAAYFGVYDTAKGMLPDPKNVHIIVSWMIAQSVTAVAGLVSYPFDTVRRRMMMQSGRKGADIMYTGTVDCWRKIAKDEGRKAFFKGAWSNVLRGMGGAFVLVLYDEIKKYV

[3] = molecular target: T2, adenine nucleotide translocator (ANT), …

C=C1[C@@H]2CC[C@H]3[C@]4(C)C[C@H](O[C@@H]5O[C@H](CO)[C@@H](OS(=O)(=O)O)[C@H](OS(=O)(=O)O)[C@H]5OC(=O)CC(C)C)C[C@@H](C(=O)O)[C@H]4CC[C@]3(C2)[C@H]1O [Atractyloside, atractyloside, reference compound]
Mitrochondrial swelling (sw) % ([1]; 600 μM alone): 110%

[Ca+2] [Ca 2 +, reference compound]
Mitrochondrial swelling (sw) % ([1]; 100 μM alone): 100%

C[C@H](NC(=O)[C@H](Cc1ccccc1)NC(=O)[C@H](Cc1ccc(O)cc1)NC(=O)[C@H](CCCNC(=N)N)NC(=O)[C@H](Cc1c[nH]c2ccccc12)NC(=O)[C@H](Cc1ccccc1)NC(=O)[C@H](CCC(N)=O)NC(=O)[C@@H](NC(=O)[C@H](CCCNC(=N)N)NC(=O)[C@H](CCCCN)NC(=O)[C@H](CC(=O)O)NC(=O)[C@H](CCCNC(=N)N)NC(=O)[C@H](CCCNC(=N)N)NC(=O)[C@H](CCCNC(=N)N)NC(=O)[C@H](CCC(N)=O)NC(=O)[C@H](CCCNC(=N)N)NC(=O)[C@H](CCCNC(=N)N)NC(=O)[C@H](CCCCN)NC(=O)[C@H](CCCCN)NC(=O)[C@H](CCCNC(=N)N)NC(=O)CCCC[C@@H]1SC[C@@H]2NC(=O)N[C@@H]21)[C@@H](C)O)C(=O)NCC(=O)N[C@@H](CC(N)=O)C(=O)O [Save1, Biot-RKKRRQRRR-DKRTQFWRYFAGN (hANT2)] (Biotin-RKKRRQRRRDKRTQFWRYFAGN-OH; C-terminus assumed)
Mitrochondrial swelling (sw) % ([1]; 5 μM + Atr 600 μM): 5% | Mitrochondrial swelling (sw) % ([1]; 5 μM alone): 2% | Mitrochondrial swelling (sw) % ([1]; 20 μM + Atr 600 μM): 12% | Mitrochondrial swelling (sw) % ([1]; 20 μM alone): 12% | Kd (Purified ANT): 10 pM | specific binding of VDAC (Purified VDAC): did not result in any specific binding

CC[C@H](C)[C@H](NC(=O)CNC(=O)[C@@H](NC(=O)[C@H](CCCNC(=N)N)NC(=O)[C@H](CO)NC(=O)[C@H](Cc1c[nH]cn1)NC(=O)[C@H](CCCNC(=N)N)NC(=O)[C@H](CS)NC(=O)CNC(=O)[C@@H](NC(=O)[C@H](CCCNC(=N)N)NC(=O)[C@H](Cc1ccccc1)NC(=O)[C@H](Cc1c[nH]cn1)NC(=O)[C@@H](NC(=O)[C@H](Cc1ccccc1)NC(=O)[C@H](CC(C)C)NC(=O)[C@H](CC(C)C)NC(=O)[C@H](CCC(N)=O)NC(=O)[C@H](CCC(N)=O)NC(=O)[C@H](CC(C)C)NC(=O)[C@@H](NC(=O)[C@H](CCCNC(=N)N)NC(=O)[C@@H](NC(=O)[C@H](CC(C)C)NC(=O)[C@H](C)NC(=O)[C@H](CCC(=O)O)NC(=O)[C@@H](NC(=O)CNC(=O)[C@@H](NC(=O)[C@H](Cc1c[nH]c2ccccc12)NC(=O)[C@@H](NC(=O)[C@H](CC(=O)O)NC(=O)CCCC[C@@H]1SC[C@@H]2NC(=O)N[C@@H]21)[C@@H](C)O)[C@@H](C)O)C(C)C)[C@@H](C)CC)[C@@H](C)CC)[C@@H](C)CC)[C@@H](C)CC)[C@@H](C)CC)C(=O)N[C@H](C(=O)N[C@@H](CCC(N)=O)C(=O)N[C@@H](CCC(N)=O)C(=O)N[C@@H](CCCNC(=N)N)C(=O)N[C@@H](CCCNC(=N)N)C(=O)N[C@H](C(=O)N[C@@H](CCCNC(=N)N)C(=O)N[C@@H](CC(N)=O)C(=O)NCC(=O)N[C@@H](C)C(=O)N[C@@H](CO)C(=O)N[C@@H](CCCCN)C(=O)N[C@@H](CO)C(=O)O)[C@@H](C)O)[C@@H](C)CC [Tox0]
Kd (Purified ANT): 150 pM

C[C@@H](O)[C@H](NC(=O)[C@H](CCCNC(=N)N)NC(=O)[C@H](CCCCN)NC(=O)[C@H](CC(=O)O)NC(=O)CNC(=O)CNC(=O)[C@H](CS)NC(=O)[C@H](CCCNC(=N)N)NC(=O)CNC(=O)[C@H](CC(N)=O)NC(=O)[C@H](CS)NC(=O)CCCC[C@@H]1SC[C@@H]2NC(=O)N[C@@H]21)C(=O)N[C@@H](CCC(N)=O)C(=O)N[C@@H](Cc1ccccc1)C(=O)N[C@@H](Cc1c[nH]c2ccccc12)C(=O)N[C@@H](CCCNC(=N)N)C(=O)N[C@@H](Cc1ccc(O)cc1)C(=O)N[C@@H](Cc1ccccc1)C(=O)N1CCC[C@H]1C(=O)NCC(=O)N[C@@H](CC(N)=O)C(=O)O [Tox5, Biot-CNGRC-GG-DKRTQFWRYFPGN (hANT2m)] (Biotin-CNGRCGGDKRTQFWRYFPGN-OH; N-terminus and C-terminus assumed)
Induction of Mitochondrial swelling (sw) [1]: ++ | specific binding of VDAC (Purified VDAC): did not result in any specific binding

C[C@H](NC(=O)CCCC[C@@H]1SC[C@@H]2NC(=O)N[C@@H]21)C(=O)N[C@@H](CS)C(=O)N[C@@H](CC(=O)O)C(=O)N[C@@H](CS)C(=O)N[C@@H](CCCNC(=N)N)C(=O)NCC(=O)N[C@@H](CC(=O)O)C(=O)N[C@@H](CS)C(=O)N[C@@H](Cc1ccccc1)C(=O)N[C@@H](CS)C(=O)NCC(=O)NCC(=O)N[C@@H](CC(=O)O)C(=O)N[C@@H](CCCCN)C(=O)N[C@@H](CCCNC(=N)N)C(=O)N[C@H](C(=O)N[C@@H](CCC(N)=O)C(=O)N[C@@H](Cc1ccccc1)C(=O)N[C@@H](Cc1c[nH]c2ccccc12)C(=O)N[C@@H](CCCNC(=N)N)C(=O)N[C@@H](Cc1ccc(O)cc1)C(=O)N[C@@H](Cc1ccccc1)C(=O)N1CCC[C@H]1C(=O)NCC(=O)N[C@@H](CC(N)=O)C(=O)O)[C@@H](C)O [Tox6, Biot-ACDCRGDCFC-GG-DKRTQFWRYFPGN (hANT2m)] (Biotin-ACDCRGDCFCGGDKRTQFWRYFPGN-OH; N-terminus and C-terminus assumed)
Induction of Mitochondrial swelling (sw) [1]: ++ | specific binding of VDAC (Purified VDAC): did not result in any specific binding

Biot- CNGRC-GG-HFAIGCRHSAIG [Ctr1 Tox1]
Induction of Mitochondrial swelling (sw) [1]: −

Biot- CNGRC-GG-HFRIGCRHSRIG [Tox1]
Induction of Mitochondrial swelling (sw) [1]: ++ | binding to purified ANT (in words) (Purified ANT; surface plasmon resonance): Binds | association of VDAC with the peptide ligand (Purified VDAC; VDAC concentrations ten times higher than ANT): only extremely low association

Biot-CNGRC-GG-CNGRC [Ctr2 Tox1]
Induction of Mitochondrial swelling (sw) [1]: −

Biot-GG-HFRIGCRHSRIG [Ctr3 Tox1]
Induction of Mitochondrial swelling (sw) [1]: +

Biot-RKKRRQRRR-LASGGAAGATSLCFVYPL (hANT[117-134]) [Save2]
Mitrochondrial swelling (sw) % ([1]; 10 μM + Atr 600 μM): 16% | Mitrochondrial swelling (sw) % ([1]; 10 μM alone): 2% | Mitrochondrial swelling (sw) % ([1]; 20 μM + Atr 600 μM): 16% | Mitrochondrial swelling (sw) % ([1]; 20 μM alone): 16%

ACDCRGDCFCGGDKRTQFWRYFPGN (modifications not checked) [Tox6 (Biot-…-GG-… (hANT2m))]
relative affinity [2]: 0.7 nM

DTWTGVEALIRILQQLLFIHFRIGCRHSRIGIIQQRRTRNGASKS (not fully specified (N-terminus)) [Tox0 (Biotin-Vpr52-96)]
Kd [3]: 150 pM

CNGRCGGDKRTQFWRYFPGN (modifications not checked) [Tox5 (Biot-CNGRC-GG-… (hANT2m))]
relative affinity [2]: 0.1 nM
